In the NIST ThermoML archive (doi:10.1021/je100704j):
Numbers after ± are expanded uncertainties.

Tests used:
[1] = refractive index (Na D-line) (dimensionless); settings: 293.15 K; 101.33 kPa; Liquid; Standard Abbe refractometry
[2] = 298.15 K; 101.33 kPa; Liquid; Vibrating tube method

Row | refractive index [1] | mass density [2] [kg/m3] | SMILES
1 | 1.4489 ± 0.0008 | 971.7 ± 0.2 | CC(=O)CC(C)=O [2,4-pentanedione]
2 | 1.4259 ± 0.0008 | 773.4 ± 0.2 | C1CCCCC1 [cyclohexane]
3 | 1.3701 ± 0.0008 | 894.6 ± 0.2 | CCOC(C)=O [ethyl acetate]
4 | 1.3327 ± 0.0008 | 996.8 ± 0.2 | O [water]
